In PubChem BioAssay (NCI):
“And” between values parts separate entries of the source, which are not always exact repeats. Equal entries are not always repeated.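 Protocol summary: plate cells (96-well), add compound at 5 concentrations, incubate 48 h, interpolate endpoints linearly. GI50 marks 50% less growth. TGI: concentration producing complete growth inhibition.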

Assays:
Experiment in all cases: growth of human tumour cells (NCI), 48 h
PC-3 prostate = tested on: PC-3 prostate
CAKI-1 renal = tested on: CAKI-1 renal
NCI-H522 lung = tested on: NCI-H522 lung
IGROV1 ovarian = tested on: IGROV1 ovarian
COLO 205 colon = tested on: COLO 205 colon
U251 CNS = tested on: U251 CNS
KM12 colon = tested on: KM12 colon
M14 melanoma = tested on: M14 melanoma
SNB-75 CNS = tested on: SNB-75 CNS
NCI-H226 lung = tested on: NCI-H226 lung

SMILES | GI50 (PC-3 prostate) | TGI (PC-3 prostate) | TGI (CAKI-1 renal) | GI50 (NCI-H522 lung) | TGI (NCI-H522 lung) | TGI (IGROV1 ovarian) | GI50 (COLO 205 colon) | TGI (COLO 205 colon) | TGI (U251 CNS) | TGI (KM12 colon) | GI50 (CAKI-1 renal) | GI50 (U251 CNS) | GI50 (M14 melanoma) | TGI (M14 melanoma) | GI50 (SNB-75 CNS) | TGI (SNB-75 CNS) | GI50 (KM12 colon) | TGI (NCI-H226 lung) | GI50 (IGROV1 ovarian) | GI50 (NCI-H226 lung)
CN1CCN(CCCN2c3ccccc3Sc3ccc(Cl)cc32)CC1 | 3.39 µM | 10.4 µM and 80.7 µM | 9.02 µM and 74.2 µM | 42 µM | 56.8 µM | 11.7 µM and 67.3 µM | 4370 nM and 36600 nM | 11.6 µM and 51.1 µM | 11.8 µM and 87.3 µM | 12.4 µM and 95.2 µM | – | – | – | – | – | – | – | – | – | –
CCNCCNc1cc(-c2ccc(C(F)(F)F)cc2)c(C#N)c2nc3cc(Cl)c(Cl)cc3n12 | 1.71 µM | 3.4 µM | 2.82 µM | 1.78 µM | 3.37 µM | – | 1680 nM | 3.22 µM | 3.08 µM | 3.2 µM | 1.45 µM | 1.67 µM | 1.59 µM | 3.12 µM | 1380 nM | 2.69 µM | 1.69 µM | – | – | –
O=C1C(c2ccccc2)=C(c2ccccc2)C(c2ccc(Sc3ccc(C4=C(c5ccccc5)C(=O)C(c5ccccc5)=C4c4ccccc4)cc3)cc2)=C1c1ccccc1 | – | – | > 100 µM | – | > 100 µM | > 100 µM | – | > 100 µM | > 100 µM | > 100 µM | – | – | – | > 100 µM | – | 76.5 µM | – | > 100 µM | – | –
COc1ccc2c(c1)[n+]([O-])c(/C(C)=N/NC(=O)c1ccccc1O)c(C)[n+]2[O-] | – | – | > 100 µM | – | > 100 µM | > 100 µM | – | – | > 100 µM | > 100 µM | – | – | – | > 100 µM | – | – | – | > 100 µM | – | –
NC(N)=N/N=C/c1c(-c2cccnc2)nc2sc(Cl)cn12 | 15.2 µM | 28.5 µM | 43.4 µM | 30.6 µM | > 100 µM | 58.5 µM | – | – | 26.1 µM | 14.3 µM | 20.5 µM | 13.3 µM | 16.5 µM | 30.1 µM | – | – | 3.95 µM | 28 µM | 17.5 µM | 13.4 µM
CN(C)CCS(=O)(=O)Nc1cc(-c2ccc3ncc(C#N)c(Nc4ccc(F)c(Cl)c4)c3c2)cnc1Cl | 0.227 µM | 1.72 µM | 0.511 µM | 0.202 µM | 0.883 µM | 0.287 µM | 188 nM | 0.439 µM | 0.746 µM | – | 0.0913 µM | 0.15 µM | 0.255 µM | 1.27 µM | < 15.2 nM | 0.562 µM | – | 2.59 µM | 0.0777 µM | 0.281 µM
COc1cc(O)c2c(c1)C(=O)C1=C(C2=O)C(O)C[C@@](C)(O)C1 (some centres undefined) | – | – | 14 µM | – | 2.47 µM | 3.71 µM | – | 0.844 µM | 6.34 µM | 8.91 µM | – | – | – | 2.02 µM | – | – | – | 13.2 µM | – | –
Cc1ccc(S(=O)(=O)OCCOCCOCCOCCOCCOS(=O)(=O)c2ccc(C)cc2)cc1 | – | – | > 100 µM | – | > 100 µM | > 100 µM | – | 34.8 µM | > 100 µM | > 100 µM | – | – | – | > 100 µM | – | > 100 µM | – | > 100 µM | – | –
COc1cccc(C2SCc3nc4ccccc4n32)c1 (centres undefined) | – | – | > 100 µM | – | – | > 100 µM | – | > 100 µM | > 100 µM | > 100 µM | – | – | – | > 100 µM | – | > 100 µM | – | > 100 µM | – | –
O=C(c1ccccc1)c1nc2ccc(C(F)(F)F)cc2nc1N1CCN(c2ccccc2)CC1 | 47.1 µM | > 100 µM | 74.7 µM | 34.6 µM | 91.3 µM | > 100 µM | 18900 nM | 51.9 µM | > 100 µM | > 100 µM | 26.2 µM | 60.9 µM | 23.2 µM | 55.3 µM | – | – | 95.1 µM | 46.9 µM | 43.9 µM | 18.2 µM
Cc1ccc(C2=Nc3ccccc3S(=O)C(c3ccc4c(c3)OCO4)C2)cc1 (centres undefined) | – | – | > 100 µM | – | 44.7 µM | > 100 µM | – | > 100 µM | 31.1 µM | 57.8 µM | – | – | – | 38 µM | – | > 100 µM | – | > 100 µM | – | –
O=C1C(=O)N(c2ccc(Cl)cc2)C(=O)C(=Nc2cccc3c(=O)[nH][nH]c(=O)c23)C1c1nc2ccccc2o1 (centres undefined) | – | – | > 100 µM | – | – | > 100 µM | – | > 100 µM | > 100 µM | > 100 µM | – | – | – | > 100 µM | – | > 100 µM | – | > 100 µM | – | –
CCCCCCCCCCOC(=O)NCCC | – | – | > 100 µM | – | 50.4 µM | > 100 µM | – | > 100 µM | 80.6 µM | > 100 µM | – | – | – | > 100 µM | – | > 100 µM | – | – | – | –
O=C(O)c1c2c(cc3c(=O)cc(-c4ccccc4)oc13)CCCC2 | – | – | – | – | > 100 µM | > 100 µM | – | > 100 µM | > 100 µM | > 100 µM | – | – | – | > 100 µM | – | > 100 µM | – | – | – | –
CC[PH+](CC)CC.CC[PH+](CC)CC.[Au] | – | – | 13.5 µM | 0.308 µM | 1.25 µM | 34.3 µM | 2520 nM | 7.32 µM | 24.3 µM | 33.3 µM | 6.8 µM | 8.21 µM | 6.68 µM | 22 µM | 15000 nM | 29 µM | 16.3 µM | 37.5 µM | 14.5 µM | 18.2 µM
Nc1nn(C(=O)Nc2c(F)cccc2F)c2ccccc12 | > 100 µM | > 100 µM | > 100 µM | 55.1 µM | > 100 µM | > 100 µM | > 100000 nM | > 100 µM | > 100 µM | > 100 µM | 45.3 µM | 96.1 µM | 74.6 µM | > 100 µM | – | – | 86.2 µM | > 100 µM | 7.7 µM | 98.5 µM
O=C(O)Cc1ccc(N=Nc2c(O)c(C(=O)O)cc3ccccc23)cc1 | – | > 100 µM | > 100 µM | – | – | > 100 µM | – | > 100 µM | > 100 µM | > 100 µM | – | – | – | > 100 µM | – | > 100 µM | – | > 100 µM | – | –
O=C1CC(CC(OCc2ccccc2)C(OCc2ccccc2)C(COCc2ccccc2)OCc2ccccc2)CC(=O)N1 (centres undefined) | > 100 µM and 11.3 µM | > 100 µM and 38.5 µM | – | – | – | > 100 µM and 33.7 µM | – | – | > 100 µM and 18.1 µM | > 100 µM and 21.3 µM | – | – | > 100 µM and 19.8 µM | > 100 µM | – | > 100 µM and 75.2 µM | – | > 100 µM and 62.4 µM | > 100 µM and 17.2 µM | > 100 µM and 17.7 µM
Cn1c(-c2c(N)n(Cc3ccc(F)cc3)c3nc(C#N)c(C#N)nc23)nc2ccccc21 | 2.61 µM | > 50 µM | 4.43 µM | – | – | – | 1520 nM | 6.26 µM | 15 µM | 11.2 µM | 1.36 µM | 3.18 µM | 3.48 µM | > 50 µM | – | – | 2.19 µM | – | – | –
